Measured values taken from patent US20250243219A1, “MACROCYCLIC COMPOUNDS AND USES THEREOF” (Cypralis Limited, priority 2022, published 2025).

Columns and labels:
cyclophilin A = cyclophilin A (Homo sapiens (Human), UniProt P62937); assay: Functional peptidyl prolyl isomerase (PPIase) spectrophotometric assay, cyclophilin A; type: biochemical; settings: first value of CypA/D cell
Procedure, shortened: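 Cuvette-based UV/Vis assay of PPIase-catalysed cis-to-trans isomerisation of a peptide substrate. First-order rate constants fitted to absorbance, background rate subtracted. Ki derived from rate constant versus inhibitor concentration, typically 6-point curves in duplicate.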

[1] = system: permeabilised HepG2 cells; assay: Calcium retention capacity (CRC) assay in permeabilised HepG2 cells (MPTP opening); type: cell-based, human; parameters: CRC [10 μM]: unit not given here; settings: compound at 10 μM
Procedure, shortened: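 Digitonin-permeabilised HepG2 cells received trains of calcium pulses (typically 5 μM) monitored with Calcium Green-5N until buffering failed, marking permeability transition. Runs with and without compound; calcium retained at 10 μM compound expressed as ratio versus cyclosporin A positive control.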

SH-SY5Y cells = assay: Thapsigargin treated cell death assay in SH-SY5Y cells; type: cell-based, human; settings: compound at 10 μM; positive = protection from cell death, negative = compound toxicity
Procedure, shortened: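 SH-SY5Y neuroblastoma cells given compound (typically 1, 3 and 10 μM, triplicate) 30 min before thapsigargin, with cyclosporin A (3 and 10 μM) as positive control. Cell death read kinetically over 24 h by CellTox Green DNA-binding fluorescence; values are % recovery at 10 μM, usually at 8 h, positive meaning protection.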

Sequence of cyclophilin A (P62937 whole entry, species assumed): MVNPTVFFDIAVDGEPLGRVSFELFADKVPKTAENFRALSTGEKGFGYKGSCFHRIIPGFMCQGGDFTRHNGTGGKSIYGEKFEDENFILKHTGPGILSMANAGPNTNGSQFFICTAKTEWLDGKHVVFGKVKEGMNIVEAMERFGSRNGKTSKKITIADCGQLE

CC(C)[C@@H]1OC(=O)C(C)(C)/C=C/c2ccc3ccc(nc3c2)N(C)NC(=O)[C@@H]2CCCN(N2)C(=O)[C@H](C)NC1=O [Compound (2)]
Ki (cyclophilin A): 5 nM | CRC [10 μM] ([1]; digitonin permeabilised HepG2 cells): 26 | CRC [10 μM] (ratio vs CsA) ([1]; normalised to cyclosporin A, value in brackets): 0.9875 | SYSY [10 μM] % recovery (SH-SY5Y cells): 40.4%
